In patent US6620828B2, “Thiazole compounds and pharmaceutical compositions for inhibiting protein kinases and methods for their use” (Agouron Pharmaceuticals, Inc., priority 1999, dated 2003):
Read-outs that look alike come from different tables or passages of the source.

Test system: human umbilical vein endothelial cells (HUVEC)
Assay: HUVEC proliferation assay
Format: cell-based
Settings: for inhibition at 0.001 µM / inhibition at 0.01 µM / inhibition at 0.05 µM / inhibition at 0.15 µM: Homo sapiens, HUVEC; for inhibition at 0.001 µM: 1 nM; for inhibition at 0.01 µM: 10 nM; for inhibition at 0.05 µM: 50 nM; for inhibition at 0.15 µM / % inhibition @ 150 nM: Table I screening results, 150 nM
In short: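 Exponentially growing HUVEC were serum-starved 24 h (F12K + 1% FBS), pre-treated 1 h with compound (0.1% DMSO final), then stimulated with 6 ng/ml VEGF. Proliferation was read 72 h later by MTT reduction (A595). IC50 came from seven 0.5-log concentrations in triplicate; screens gave % inhibition relative to VEGF-only and starved wells.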

[1] = table following Table II (untitled), crude combinatorial library
[2] = table following Table II (untitled), crude combinatorial library, read-out: % inhibition @ 10 nM
[3] = Inhibition of HUVEC Proliferation, crude combinatorial urea library, read-out: Inhibition @ 50 nM
[4] = Inhibition of HUVEC Proliferation, crude combinatorial urea library, read-out: % inhibition @ 50 nM
[5] = crude combinatorial amide library
[6] = crude combinatorial urea library, read-out: Inhibition of HUVEC Proliferation % inhibition @ 10 nM
[7] = crude combinatorial urea library, read-out: Inhibition of HUVEC Proliferation % inhibition @ 50 nM
[8] = Table II screening results, crude combinatorial amide library
[9] = Table II screening results, crude combinatorial amide library, read-out: % inhibition @ 10 nM

## COc1cc(Nc2nc(N)c(-c3nc(-c4cc(NC(=O)C5CCC6CCC(O)CC5C6)ccc4C)no3)s2)cc(OC)c1OC (stereo not drawn)
[1]
  inhibition at 0.001 µM: 10%
[2]
  inhibition at 0.01 µM: 11%

## CCN(CCNC(=O)Nc1nc(N)c(-c2nc(-c3cc(NC(=O)c4cccc(OC)c4)c(F)cc3F)no2)s1)c1cccc(C)c1
[3]
  inhibition at 0.05 µM: 67%

## COc1cccc(C(=O)Nc2cc(-c3csc(-c4sc(NC(=O)NCC(C)O)nc4N)n3)c(F)cc2F)c1 (stereo not drawn)
[4]
  inhibition at 0.05 µM: 111%

## COc1cccc(C(=O)Nc2cc(-c3csc(-c4sc(NC(=O)NCCC(=O)NCC(=O)O)nc4N)n3)c(F)cc2F)c1
[4]
  inhibition at 0.05 µM: 57%

## COc1cc(Nc2nc(N)c(-c3nc(-c4cccc(NC(=O)CCN5CCCCC5)c4)cs3)s2)cc(OC)c1OC
[5]
  inhibition at 0.15 µM: 15%

## COc1cc(Nc2nc(N)c(-c3nc(-c4cccc(NC(=O)Cc5ccccc5C)c4)cs3)s2)cc(OC)c1OC
[5]
  % inhibition @ 150 nM: 0%

## COc1cccc(C(=O)Nc2cccc(-c3csc(-c4sc(NC(=O)NCC5CCC=CO5)nc4N)n3)c2)c1 (stereo not drawn)
[6]
  inhibition at 0.01 µM: -5%
[7]
  inhibition at 0.05 µM: 33%

## COc1cc(Nc2nc(N)c(-c3nc(-c4cc(NC(=O)C5CC(=O)N(C)C5)ccc4C)no3)s2)cc(OC)c1OC (stereo not drawn)
[1]
  inhibition at 0.001 µM: 16%
[2]
  inhibition at 0.01 µM: -18%

## COc1cccc(C(=O)Nc2cc(-c3noc(-c4sc(NC(=O)NCCC(=O)NCC(=O)O)nc4N)n3)c(F)cc2F)c1
[3]
  inhibition at 0.05 µM: 49%

## COc1cc(Nc2nc(N)c(-c3nc(-c4cc(NC(=O)c5cc(F)ccc5C)ccc4C)no3)s2)cc(OC)c1OC
[1]
  inhibition at 0.001 µM: 29%
[2]
  inhibition at 0.01 µM: 64%

## COc1cc(Nc2nc(N)c(-c3nc(-c4cccc(NC(=O)c5cc(C(C)(C)C)cc(C(C)(C)C)c5)c4)cs3)s2)cc(OC)c1OC
[5]
  inhibition at 0.15 µM: -12%

## COc1cccc(C(=O)Nc2cc(-c3noc(-c4sc(NC(=O)NCC(=O)O)nc4N)n3)c(F)cc2F)c1
[3]
  inhibition at 0.05 µM: 73%

## COc1cc(Nc2nc(N)c(-c3nc(-c4cccc(NC(=O)Cc5cccc(Cl)c5)c4)cs3)s2)cc(OC)c1OC
[5]
  inhibition at 0.15 µM: 30%

## COc1cccc(C(=O)Nc2cccc(-c3csc(-c4sc(NC(=O)NCCc5cccnc5)nc4N)n3)c2)c1
[6]
  inhibition at 0.01 µM: 35%
[7]
  inhibition at 0.05 µM: 97%

## COc1cccc(C(=O)Nc2cccc(-c3csc(-c4sc(NC(=O)NCCc5c[nH]cn5)nc4N)n3)c2)c1
[6]
  inhibition at 0.01 µM: 1%
[7]
  inhibition at 0.05 µM: -43%

## CCCCN(CC)CCNC(=O)Nc1nc(N)c(-c2nc(-c3cc(NC(=O)c4cccc(OC)c4)c(F)cc3F)no2)s1
[3]
  inhibition at 0.05 µM: 42%

## C=CCC(C)C(=O)Nc1cccc(-c2csc(-c3sc(Nc4cc(OC)c(OC)c(OC)c4)nc3N)n2)c1 (stereo not drawn)
[5]
  % inhibition @ 150 nM: 0%

## COc1cc(Nc2nc(N)c(-c3nc(-c4cccc(NC(=O)c5cccc(Oc6ccccc6)c5)c4)cs3)s2)cc(OC)c1OC
[5]
  inhibition at 0.15 µM: -3%

## COc1cccc(C(=O)Nc2cccc(-c3csc(-c4sc(NC(=O)NCC(=N)N)nc4N)n3)c2)c1
[6]
  inhibition at 0.01 µM: 27%
[7]
  inhibition at 0.05 µM: 46%

## CNC(=O)Nc1nc(N)c(-c2nc(-c3cccc(NC(=O)c4cc(C)on4)c3)cs2)s1
[8]
  inhibition at 0.001 µM: 14%
[9]
  inhibition at 0.01 µM: 10%

## COc1cccc(C(=O)Nc2cc(-c3noc(-c4sc(NC(=O)NCCO)nc4N)n3)c(F)cc2F)c1 [drawing 806]
[3]
  inhibition at 0.05 µM: 19%

## COc1cc(Nc2nc(N)c(-c3nc(-c4cccc(NC(=O)c5cc(C)cc(C)c5)c4)cs3)s2)cc(OC)c1OC
[5]
  inhibition at 0.15 µM: 78%

## COc1cccc(C(=O)Nc2cccc(-c3csc(-c4sc(NC(=O)NCCN5CCNCC5)nc4N)n3)c2)c1
[6]
  inhibition at 0.01 µM: 4%
[7]
  inhibition at 0.05 µM: 39%

## COc1cccc(C(=O)Nc2cc(-c3noc(-c4sc(NC(=O)NCCNC(C)=O)nc4N)n3)c(F)cc2F)c1
[3]
  inhibition at 0.05 µM: 75%

## COc1cc(Nc2nc(N)c(-c3nc(-c4cccc(NC(=O)C5CCN(C(C)=O)CC5)c4)cs3)s2)cc(OC)c1OC
[5]
  % inhibition @ 150 nM: 0%

## COc1cc(Nc2nc(N)c(-c3nc(-c4cc(NC(=O)c5ccc(C(C)=O)s5)ccc4C)no3)s2)cc(OC)c1OC
[1]
  inhibition at 0.001 µM: 35%
[2]
  inhibition at 0.01 µM: 93%

## COc1cccc(C(=O)Nc2cc(-c3csc(-c4sc(NC(=O)NCc5ccccn5)nc4N)n3)c(F)cc2F)c1 [drawing 705]
[4]
  inhibition at 0.05 µM: 118%

## COc1cc(Nc2nc(N)c(-c3nc(-c4cc(NC(=O)C5CC5C)ccc4C)no3)s2)cc(OC)c1OC (stereo not drawn)
[1]
  inhibition at 0.001 µM: 24%
[2]
  inhibition at 0.01 µM: 6%

## COc1cc(Nc2nc(N)c(-c3nc(-c4cc(NC(=O)[C@H]5CC(=O)NC(=O)N5)ccc4C)no3)s2)cc(OC)c1OC
[1]
  inhibition at 0.001 µM: 25%
[2]
  inhibition at 0.01 µM: 2%

## COc1cc(Nc2nc(N)c(-c3nc(-c4cc(NC(=O)[C@H]5CCC[C@H]5O)ccc4C)no3)s2)cc(OC)c1OC
[1]
  inhibition at 0.001 µM: 45%
[2]
  inhibition at 0.01 µM: 9%

## COc1cc(Nc2nc(N)c(-c3nc(-c4cccc(NC(=O)Cc5ccc(Cl)cc5)c4)cs3)s2)cc(OC)c1OC
[5]
  inhibition at 0.15 µM: -7%

## C/C=C(\C)C(=O)Nc1cccc(-c2csc(-c3sc(NC(=O)NC)nc3N)n2)c1
[8]
  inhibition at 0.001 µM: 5%
[9]
  inhibition at 0.01 µM: 17%

## CNC(=O)Nc1nc(N)c(-c2nc(-c3cccc(NC(=O)CC4=CCCCC4)c3)cs2)s1
[8]
  inhibition at 0.001 µM: 29%
[9]
  inhibition at 0.01 µM: 82%

## COc1cc(Nc2nc(N)c(-c3nc(-c4cccc(NC(=O)/C(=C/c5ccccc5)c5ccccc5)c4)cs3)s2)cc(OC)c1OC
[5]
  inhibition at 0.15 µM: 3%

## COc1cccc(C(=O)Nc2cc(-c3noc(-c4sc(NC(=O)NCCN(C)C)nc4N)n3)c(F)cc2F)c1
[3]
  inhibition at 0.05 µM: 69%

## COc1cccc(C(=O)Nc2cc(-c3csc(-c4sc(NC(=O)NC(C)CN(C)C)nc4N)n3)c(F)cc2F)c1 (stereo not drawn)
[4]
  inhibition at 0.05 µM: 64%

## COc1cc(Nc2nc(N)c(-c3nc(-c4cccc(NC(=O)c5ccc6c(c5)C(=O)N(C)C6=O)c4)cs3)s2)cc(OC)c1OC
[5]
  inhibition at 0.15 µM: -3%

## COc1cc(Nc2nc(N)c(-c3nc(-c4cccc(NC(=O)c5ccc(C(=O)C(F)(F)F)cc5)c4)cs3)s2)cc(OC)c1OC
[5]
  inhibition at 0.15 µM: 26%

## COc1cccc(C(=O)Nc2cc(-c3csc(-c4sc(NC(=O)NCCc5cncn5C)nc4N)n3)c(F)cc2F)c1
[4]
  inhibition at 0.05 µM: 58%

## CCN1CCCC1CNC(=O)Nc1nc(N)c(-c2nc(-c3cc(NC(=O)c4cccc(OC)c4)c(F)cc3F)cs2)s1 (stereo not drawn)
[4]
  inhibition at 0.05 µM: 85%

## CNC(=O)Nc1nc(N)c(-c2nc(-c3cccc(NC(=O)c4cc(OC)ccc4C#N)c3)cs2)s1
[8]
  inhibition at 0.001 µM: -18%
[9]
  inhibition at 0.01 µM: -1%

## CCN(CC)CCCC(C)NC(=O)Nc1nc(N)c(-c2nc(-c3cc(NC(=O)c4cccc(OC)c4)c(F)cc3F)no2)s1 (stereo not drawn)
[3]
  inhibition at 0.05 µM: 7%

## COc1cccc(C(=O)Nc2cc(-c3csc(-c4sc(NC(=O)NCCN5CCNC5=O)nc4N)n3)c(F)cc2F)c1
[4]
  inhibition at 0.05 µM: 78%

## COc1cccc(C(=O)Nc2cc(-c3csc(-c4sc(NC(=O)NCC(=O)NO)nc4N)n3)c(F)cc2F)c1
[4]
  inhibition at 0.05 µM: 19%

## CNC(=O)Nc1nc(N)c(-c2nc(-c3cccc(NC(=O)C4CC4C)c3)cs2)s1 (stereo not drawn)
[8]
  inhibition at 0.001 µM: -12%
[9]
  inhibition at 0.01 µM: 0%

## COc1cc(Nc2nc(N)c(-c3nc(-c4cccc(NC(=O)/C=C/c5cccnc5)c4)cs3)s2)cc(OC)c1OC
[5]
  inhibition at 0.15 µM: -13%

## COc1cc(CCC(=O)Nc2cccc(-c3csc(-c4sc(Nc5cc(OC)c(OC)c(OC)c5)nc4N)n3)c2)cc(OC)c1OC
[5]
  % inhibition @ 150 nM: 0%

## COc1cc(Nc2nc(N)c(-c3nc(-c4cccc(NC(=O)c5cc6ccccc6o5)c4)cs3)s2)cc(OC)c1OC [drawing 844]
[5]
  inhibition at 0.15 µM: 40%

## COc1cc(Nc2nc(N)c(-c3nc(-c4cccc(NC(=O)c5ccc(C(C)C)cc5)c4)cs3)s2)cc(OC)c1OC [drawing 943]
Crude combinatorial amide library, 0.15 µM
  % inhibition @ 150 nM: 6%
